Experimental data published in BindingDB's records for patent US10738057 (Incyte Corporation, 2020).

Assays:
[1] = molecular target: Phosphatidylinositol 4,5-bisphosphate 3-kinase catalytic subunit gamma isoform (Homo sapiens, UniProt P48736); experiment: Scintillation Proximity Assay
Excerpt: PI3K-γ: [γ-33P]ATP (10 mCi/mL) and Wheat Germ Agglutinin (WGA) YSi SPA Scintillation Beads was purchased from PerkinElmer (Waltham, Mass.). Lipid kinase substrate, D-myo-Phosphatidylinositol 4,5-bisphosphate (PtdIns(4,5)P2)D (+)-sn-1,2-di-O-octanoylglyceryl, 3-O-phospho linked (PIP2), CAS 204858-53-7, was purchased from Echelon Biosciences (Salt Lake City, Utah). PI3Kγ (p110γ) Recombinant Human Protein was purchased from Life technology (Grand Island, N.Y.). ATP, MgCl2, DTT, EDTA, MOPS and CHAPS were purchased from SigmaAldrich (St. Louis, Mo.).The kinase reaction was conducted in polystyrene 384-well Greiner Bio-one white plate from Thermo Fisher Scientific in a final volume of 25 μL. Inhibitors were first diluted serially in DMSO and added to the plate wells before the addition of other reaction components. The final concentration of DMSO in the assay was 2%. The PI3Kγ assay was carried out at room temperature in 20 mM MOPS, pH 6.7, 10 mM MgCl2, 5 mM DTT and CHAPS 0.03%. Reactions were initiated by the addition of ATP, the final reaction mixture consisted of 20 μM PIP2, 2 μM ATP, 0.5 μCi [γ-33P] ATP, 13 nM PI3Kγ. Reactions were incubated for 120 min and terminated by the addition of 40 μL SPA beads suspended in quench buffer: 163 mM potassium phosphate pH 7.8, 20% glycerol, 25 mM EDTA. The final concentration of SPA beads is 1.0 mg/mL. After the plate sealing, plates were shaken overnight at room temperature and centrifuged at 1500 rpm for 10 min, the radioactivity of the product was determined by scintillation counting on Topcount (Perkin-Elmer).

[2] = molecular target: T1, Phosphatidylinositol 4,5-bisphosphate 3-kinase catalytic subunit delta isoform (Homo sapiens, UniProt O00329); experiment: Scintillation Proximity Assay
T1 sequence (O00329 whole entry): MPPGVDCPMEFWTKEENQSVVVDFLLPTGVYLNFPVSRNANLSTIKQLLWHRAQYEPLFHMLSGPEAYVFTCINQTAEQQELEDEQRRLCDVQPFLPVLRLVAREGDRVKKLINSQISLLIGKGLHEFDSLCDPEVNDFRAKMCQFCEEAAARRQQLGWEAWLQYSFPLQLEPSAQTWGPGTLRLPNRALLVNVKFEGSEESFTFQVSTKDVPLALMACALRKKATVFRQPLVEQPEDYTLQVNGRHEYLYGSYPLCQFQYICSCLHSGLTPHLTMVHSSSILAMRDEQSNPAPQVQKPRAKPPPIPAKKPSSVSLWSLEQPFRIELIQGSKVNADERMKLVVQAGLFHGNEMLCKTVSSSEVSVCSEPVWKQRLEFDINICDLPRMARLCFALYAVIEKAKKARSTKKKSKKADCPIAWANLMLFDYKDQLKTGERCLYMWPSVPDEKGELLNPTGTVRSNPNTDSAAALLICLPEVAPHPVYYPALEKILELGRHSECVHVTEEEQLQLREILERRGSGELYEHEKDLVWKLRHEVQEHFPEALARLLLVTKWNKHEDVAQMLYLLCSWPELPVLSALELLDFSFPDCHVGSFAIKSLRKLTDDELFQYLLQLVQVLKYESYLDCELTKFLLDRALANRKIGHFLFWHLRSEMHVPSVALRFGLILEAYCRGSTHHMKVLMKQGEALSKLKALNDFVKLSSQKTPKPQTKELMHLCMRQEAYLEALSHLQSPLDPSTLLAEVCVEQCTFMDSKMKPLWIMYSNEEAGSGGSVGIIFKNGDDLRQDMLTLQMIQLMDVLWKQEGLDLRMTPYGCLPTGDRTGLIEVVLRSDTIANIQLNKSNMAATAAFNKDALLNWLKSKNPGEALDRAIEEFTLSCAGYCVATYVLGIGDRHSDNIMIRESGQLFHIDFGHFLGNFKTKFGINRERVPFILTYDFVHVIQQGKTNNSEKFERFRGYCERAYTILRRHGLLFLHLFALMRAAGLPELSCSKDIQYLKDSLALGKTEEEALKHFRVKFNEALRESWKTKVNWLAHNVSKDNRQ
Excerpt: PI3Kδ: [γ-33P]ATP (10 mCi/mL) and Wheat Germ Agglutinin (WGA) YSi SPA Scintillation Beads was purchased from PerkinElmer (Waltham, Mass.). Lipid kinase substrate, D-myo-Phosphatidylinositol 4,5-bisphosphate (PtdIns(4,5)P2)D (+)-sn-1,2-di-O-octanoylglyceryl, 3-O-phospho linked (PIP2), CAS 204858-53-7, was purchased from Echelon Biosciences (Salt Lake City, Utah). PI3Kδ (p110δ/p85α) Recombinant Human Protein was purchased from Eurofins. ATP, MgCl2, DTT, EDTA, MOPS and CHAPS were purchased from SigmaAldrich.The kinase reaction was conducted in polystyrene 384-well Greiner Bio-one white plate from Thermo Fisher Scientific in a final volume of 25 μL. Inhibitors were first diluted serially in DMSO and added to the plate wells before the addition of other reaction components. The final concentration of DMSO in the assay was 2%. The PI3Kδ assay was carried out at room temperature in 20 mM MOPS, pH 6.7, 10 mM MgCl2, 5 mM DTT and CHAPS 0.03%. Reactions were initiated by the addition of ATP, the final reaction mixture consisted of 20 μM PIP2, 2 μM ATP, 0.5 μCi [γ-33P] ATP, 3.4 nM PI3Kδ. Reactions were incubated for 120 min and terminated by the addition of 40 μL SPA beads suspended in quench buffer: 163 mM potassium phosphate pH 7.8, 20% glycerol, 25 mM EDTA. The final concentration of SPA beads is 1.0 mg/mL. After the plate sealing, plates were shaken overnight at room temperature and centrifuged at 1500 rpm for 10 min, the radioactivity of the product was determined by scintillation counting on Topcount.

Phosphatidylinositol 4,5-bisphosphate 3-kinase catalytic subunit gamma isoform, sequence (P48736 whole entry, canonical isoform): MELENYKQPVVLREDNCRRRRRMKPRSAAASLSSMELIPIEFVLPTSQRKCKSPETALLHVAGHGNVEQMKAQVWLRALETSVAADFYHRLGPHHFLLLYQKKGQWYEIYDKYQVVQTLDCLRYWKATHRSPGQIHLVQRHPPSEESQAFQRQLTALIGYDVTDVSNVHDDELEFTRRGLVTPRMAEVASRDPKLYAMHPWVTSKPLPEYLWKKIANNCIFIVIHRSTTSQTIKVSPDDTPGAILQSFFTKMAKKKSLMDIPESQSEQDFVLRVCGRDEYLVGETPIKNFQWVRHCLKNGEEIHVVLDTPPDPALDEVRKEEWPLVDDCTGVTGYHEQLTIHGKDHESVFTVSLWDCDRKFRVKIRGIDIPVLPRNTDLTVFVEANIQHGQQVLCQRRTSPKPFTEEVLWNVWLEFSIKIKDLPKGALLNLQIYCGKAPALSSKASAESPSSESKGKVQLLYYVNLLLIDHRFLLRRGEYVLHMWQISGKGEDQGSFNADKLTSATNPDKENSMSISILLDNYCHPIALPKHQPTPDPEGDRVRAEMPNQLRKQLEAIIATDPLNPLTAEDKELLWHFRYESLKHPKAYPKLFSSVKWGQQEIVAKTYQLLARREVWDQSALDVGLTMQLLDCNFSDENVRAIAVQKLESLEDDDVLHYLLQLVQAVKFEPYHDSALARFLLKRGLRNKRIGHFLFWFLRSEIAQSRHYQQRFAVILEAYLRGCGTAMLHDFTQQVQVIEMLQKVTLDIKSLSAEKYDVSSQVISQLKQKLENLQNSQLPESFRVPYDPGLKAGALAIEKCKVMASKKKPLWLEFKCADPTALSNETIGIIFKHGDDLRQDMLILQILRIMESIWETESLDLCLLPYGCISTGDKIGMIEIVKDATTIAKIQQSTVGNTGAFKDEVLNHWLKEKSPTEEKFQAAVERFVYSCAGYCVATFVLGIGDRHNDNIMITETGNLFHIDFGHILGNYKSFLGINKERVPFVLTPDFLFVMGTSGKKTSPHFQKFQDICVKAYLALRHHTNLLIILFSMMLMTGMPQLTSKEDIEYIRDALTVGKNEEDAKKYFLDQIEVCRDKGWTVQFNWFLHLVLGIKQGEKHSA

Compound | IC50 [1] [nM] | IC50 [2] [nM]
Cc1ccc(C(C)C(F)(F)F)cc1-c1cnc2c(N)nc(-c3cnn(C)c3)cn12 (stereo unspecified) [US10738057, Example 69] | < 100 | < 100
Cc1ncc(-c2cn3c(-c4cc(C(C)C(F)(F)F)ccc4C)cnc3c(N)n2)s1 (stereo unspecified) [US10738057, Example 70] | < 100 | < 100
Cc1ccc(C(C)C(F)(F)F)cc1-c1cnc2c(N)nc(-c3cnco3)cn12 (stereo unspecified) [US10738057, Example 71] | < 100 | < 100
